Molecules are shown by their SMILES.

Assay [1] deals with Voltage-gated L-type calcium channel (Rattus norvegicus, UniProt P22002+Q02485+P27732). The experiment in a line: Inhibition of Voltage-dependent L-type calcium channel in rat thoracic aorta ring. It counts as tissue-based.
Assay [2] can be described thus: Inhibition of Voltage-dependent N-type calcium channel- mediated calcium influx in human IMR-32 cells. It counts as cell-based.
Another assay has as its system Rattus norvegicus. The assay is described as follows: Ratio of inhibition of L-type calcium channel to inhibition of N-type calcium channel in rat hypertension model at 3 ug/ml, iv. It counts as functional.

Usually IC50 stands for the concentration needed to halve the response being measured. Consider `COC(OC)C1=C(C(=O)OC/C=C/c2ccccc2)C(c2cccc(Cl)c2)C(C(=O)O)=C(C)N1` (stereo in doubt; (-)-3), for which the IC50 in assay [1] is 1800 nM.

In the case of `COCCOC(=O)C1=C(C)NC(C)=C(C(=O)OC/C=C/c2ccccc2)C1c1cccc([N+](=O)[O-])c1` (configuration not stated) [CILNIDIPINE], in assay [2] (Homo sapiens, IMR-32), the IC50 was 1600 nM. Moreover, the Ratio with Rattus norvegicus is 1.

`CC1=C(C(=O)O)C(c2cccc([N+](=O)[O-])c2)C(C(=O)OC/C=C/c2ccccc2)=C(C)N1` (racemic): the IC50 in assay [2] (Homo sapiens, IMR-32) worked out at 3500 nM.

`COC(OC)C1=C(C(=O)OC/C=C/c2ccccc2)C(c2cccc(Cl)c2)C(C(=O)O)=C(C)N1` (single isomer, unassigned; (+)): the IC50 in assay [2] (imr-32) came to 2600 nM; in assay [1], 13200 nM.

As for `COC(OC)C1=C(C(=O)OC/C=C/c2ccccc2)C(c2cccc(Cl)c2)C(C(=O)O)=C(C)N1` (racemic), the IC50 in assay [2] (Homo sapiens, IMR-32) was found to be 3000 nM.

For the origin of these results see ChEMBL document CHEMBL1777709, “Asymmetric synthesis and biological evaluations of (+)- and (-)-6-dimethoxymethyl-1,4-dihydropyridine-3-carboxylic acid derivatives blocking N-type calcium channels” (Bioorg Med Chem Lett, 2011).
